The values that follow come from US20250170248A1, “SMARCA DEGRADERS AND USES THEREOF” (Kymera Therapeutics, Inc., priority 2021, published 2025).

Common to all, as to assay type: cell-based
For one assay, the target named is T1, SMARCA4 (Homo sapiens, UniProt P51532).
T1 construct: SMARCA2/SMARCA4 protein degradation selectivity in MV4-11 cells; endogenous in cells; host or cells: MV4-11
The experiment in a line: SMARCA4 Western blot degradation in MV4-11 cells. The following applies: for Dmax: MV4-11, MV4-11 cells, read-out: SMARCA4 MSD MV411 degradation 24 h: average Dmax %; for Dmax / DC50: 24 h; for DC50: read-out: SMARCA4 MSD MV411 degradation 24 h: Mean external-Abs DC50. In a few lines: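 Fluorescent LI-COR imaging of Western blots quantified SMARCA2 and SMARCA4 protein remaining in MV4-11 cells after 24 h of compound treatment. β-actin was the loading control, and DC50, Dmax and SMARCA2/4 selectivity are given as letter-coded ranges.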
(In western blotting, separated proteins are transferred to a membrane and probed.)

Assay [1] addresses T2, SMARCA2 (Homo sapiens, UniProt P51531). The assay can be described thus: MSD SMARCA2 degradation in A549 cell line. Conditions: 24 h; for Dmax: A549, A549 cells; for DC50: A549 cells, read-out: SMARCA2 MSD A549 degradation 24 h: Average external-Abs DC50. In short, it runs like this:
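SMARCA2 protein remaining after 24 h exposure of A549 cells (top concentration 1000 nM, 3-fold dilutions) was measured by MSD electrochemiluminescence immunoassay of cell lysates. Results are given as binned DC50 and maximal degradation (Dmax) codes.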

The target of assay [2] is T2, SMARCA2. The assay can be described thus: SMARCA2 Western blot degradation in MV4-11 cells. Further details: SMARCA2/SMARCA4 protein degradation selectivity in MV4-11 cells; endogenous in cells; host or cells: MV4-11. Conditions: for Dmax: MV4-11, MV4-11 cells, read-out: SMARCA2 MSD MV411 degradation 24 h: average Dmax %; for DC50: read-out: SMARCA2 MSD MV411 degradation 24 h: Mean external-Abs DC50; for Selectivity in MV411: SMARCA2/4 selectivity.

T2 sequence (P51531 whole entry): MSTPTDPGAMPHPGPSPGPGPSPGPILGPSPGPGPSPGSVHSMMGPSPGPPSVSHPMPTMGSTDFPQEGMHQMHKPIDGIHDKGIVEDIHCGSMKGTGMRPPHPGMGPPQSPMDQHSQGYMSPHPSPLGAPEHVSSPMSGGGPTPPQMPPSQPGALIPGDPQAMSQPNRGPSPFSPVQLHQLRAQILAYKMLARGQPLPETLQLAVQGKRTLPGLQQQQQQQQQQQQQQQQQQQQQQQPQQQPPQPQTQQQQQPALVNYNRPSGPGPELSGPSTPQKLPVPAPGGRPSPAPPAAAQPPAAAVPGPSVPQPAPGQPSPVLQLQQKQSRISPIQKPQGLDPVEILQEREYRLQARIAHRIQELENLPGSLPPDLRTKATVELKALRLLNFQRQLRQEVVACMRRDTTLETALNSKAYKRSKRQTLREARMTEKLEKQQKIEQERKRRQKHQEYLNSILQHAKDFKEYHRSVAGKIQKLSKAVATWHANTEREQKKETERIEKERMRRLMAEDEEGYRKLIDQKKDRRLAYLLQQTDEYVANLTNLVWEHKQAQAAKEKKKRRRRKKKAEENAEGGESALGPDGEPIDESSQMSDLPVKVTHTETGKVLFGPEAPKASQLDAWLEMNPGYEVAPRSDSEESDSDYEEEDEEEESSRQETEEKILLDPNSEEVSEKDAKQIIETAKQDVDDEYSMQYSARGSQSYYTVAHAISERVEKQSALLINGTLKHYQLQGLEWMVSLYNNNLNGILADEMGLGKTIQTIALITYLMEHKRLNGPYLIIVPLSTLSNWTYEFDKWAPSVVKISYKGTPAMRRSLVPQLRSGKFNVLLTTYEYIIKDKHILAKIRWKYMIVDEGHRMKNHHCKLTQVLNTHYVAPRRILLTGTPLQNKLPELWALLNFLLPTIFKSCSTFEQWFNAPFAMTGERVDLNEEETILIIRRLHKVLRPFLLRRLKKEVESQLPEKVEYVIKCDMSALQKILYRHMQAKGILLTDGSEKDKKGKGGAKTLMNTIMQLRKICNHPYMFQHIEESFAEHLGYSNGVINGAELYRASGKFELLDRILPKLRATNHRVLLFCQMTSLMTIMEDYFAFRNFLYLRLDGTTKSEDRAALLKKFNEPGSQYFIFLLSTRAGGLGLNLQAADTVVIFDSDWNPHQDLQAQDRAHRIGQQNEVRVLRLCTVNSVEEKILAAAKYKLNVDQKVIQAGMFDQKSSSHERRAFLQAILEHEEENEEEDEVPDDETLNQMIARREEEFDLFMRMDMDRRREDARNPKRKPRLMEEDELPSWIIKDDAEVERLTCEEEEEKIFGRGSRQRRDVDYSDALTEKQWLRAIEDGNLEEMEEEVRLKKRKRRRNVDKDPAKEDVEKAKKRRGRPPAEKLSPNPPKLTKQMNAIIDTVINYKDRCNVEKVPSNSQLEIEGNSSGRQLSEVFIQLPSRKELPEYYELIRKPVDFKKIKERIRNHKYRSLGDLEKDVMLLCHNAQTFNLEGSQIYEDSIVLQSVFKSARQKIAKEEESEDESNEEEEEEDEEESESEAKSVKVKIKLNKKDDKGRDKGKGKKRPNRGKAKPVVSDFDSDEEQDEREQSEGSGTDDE
T1 sequence (P51532 whole entry): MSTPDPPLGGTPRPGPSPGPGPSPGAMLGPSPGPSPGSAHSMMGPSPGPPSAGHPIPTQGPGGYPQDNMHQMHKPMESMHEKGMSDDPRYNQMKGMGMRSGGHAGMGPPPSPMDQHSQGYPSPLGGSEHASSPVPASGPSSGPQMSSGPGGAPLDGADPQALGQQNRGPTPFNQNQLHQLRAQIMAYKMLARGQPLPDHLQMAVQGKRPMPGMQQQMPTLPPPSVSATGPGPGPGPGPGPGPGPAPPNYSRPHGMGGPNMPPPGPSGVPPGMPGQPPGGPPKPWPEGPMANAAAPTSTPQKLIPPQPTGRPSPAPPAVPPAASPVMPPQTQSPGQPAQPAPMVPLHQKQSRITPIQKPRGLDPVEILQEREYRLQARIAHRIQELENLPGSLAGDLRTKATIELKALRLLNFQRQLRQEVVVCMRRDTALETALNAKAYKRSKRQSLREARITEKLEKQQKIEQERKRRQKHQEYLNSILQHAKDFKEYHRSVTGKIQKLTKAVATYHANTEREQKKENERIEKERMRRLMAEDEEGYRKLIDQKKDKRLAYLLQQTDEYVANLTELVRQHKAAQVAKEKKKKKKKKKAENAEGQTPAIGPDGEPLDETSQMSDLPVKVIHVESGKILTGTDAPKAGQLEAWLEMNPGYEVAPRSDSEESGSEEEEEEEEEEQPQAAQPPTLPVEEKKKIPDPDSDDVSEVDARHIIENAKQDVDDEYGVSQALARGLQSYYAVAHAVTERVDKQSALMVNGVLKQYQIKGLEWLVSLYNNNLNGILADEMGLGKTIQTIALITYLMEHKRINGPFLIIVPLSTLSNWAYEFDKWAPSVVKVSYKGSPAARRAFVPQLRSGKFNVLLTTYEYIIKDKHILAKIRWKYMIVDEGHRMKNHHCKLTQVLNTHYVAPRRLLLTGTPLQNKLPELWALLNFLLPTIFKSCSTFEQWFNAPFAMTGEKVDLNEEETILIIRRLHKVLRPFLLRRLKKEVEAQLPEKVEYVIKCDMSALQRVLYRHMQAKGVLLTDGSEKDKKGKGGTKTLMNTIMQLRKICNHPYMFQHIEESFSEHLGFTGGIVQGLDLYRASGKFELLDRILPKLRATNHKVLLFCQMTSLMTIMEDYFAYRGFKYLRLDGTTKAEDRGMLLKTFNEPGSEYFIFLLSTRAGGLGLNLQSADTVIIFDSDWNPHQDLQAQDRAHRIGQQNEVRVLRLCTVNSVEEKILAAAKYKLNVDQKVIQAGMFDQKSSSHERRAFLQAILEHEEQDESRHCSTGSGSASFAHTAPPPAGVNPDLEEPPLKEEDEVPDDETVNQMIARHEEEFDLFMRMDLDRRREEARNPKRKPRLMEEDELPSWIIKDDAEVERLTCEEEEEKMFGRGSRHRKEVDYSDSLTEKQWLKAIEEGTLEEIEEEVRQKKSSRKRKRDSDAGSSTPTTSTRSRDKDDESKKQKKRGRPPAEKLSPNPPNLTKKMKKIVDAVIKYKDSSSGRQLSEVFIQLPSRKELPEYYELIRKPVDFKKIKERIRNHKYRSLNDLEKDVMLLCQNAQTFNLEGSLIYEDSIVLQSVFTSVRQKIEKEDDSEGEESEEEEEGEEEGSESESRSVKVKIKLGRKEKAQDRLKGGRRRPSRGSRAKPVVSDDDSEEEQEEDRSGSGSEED

Regarding `CC(C)(C)[C@H](NC(=O)[C@H]1CCC2(CC1)C[C@H](N1CCC(c3cnc(N4CCN5c6cc(-c7ccccc7O)nnc6NC[C@H]5C4)nc3)CC1)C2)C(=O)N1C[C@H](O)C[C@H]1C(=O)NCC#Cc1ccc(Cl)cc1` (single isomer, unassigned) [I-101], the Dmax (commonly the greatest extent of degradation seen) was less than 50% on SMARCA4, 50 to 70% at SMARCA2 [1] and less than 50% on SMARCA2 [2] (24 h). The DC50 (as a rule, the concentration giving 50% degradation) at SMARCA4 (MV4-11 cells) is greater than 100 nM; on SMARCA2 [1], greater than 100 nM; on SMARCA2 [2] (MV4-11 cells, 24 h) it was greater than 100 nM. Moreover, the “Selectivity in MV411” value on SMARCA2 [2] (MV4-11 cells) is “C (C (10-100 fold))”.
For `C#Cc1ccc(CNC(=O)[C@@H]2C[C@@H](O)CN2C(=O)[C@@H](NC(=O)N2CC3(CC(N4CCN([C@H]5CC[C@H](N6CCc7[nH]c8nnc(-c9ccccc9O)cc8c7[C@H]6C)CC5)CC4)C3)C2)C(C)(C)C)cc1` [I-186], the values for the maximal degradation (Dmax) at SMARCA4, at SMARCA2 [1] and on SMARCA2 [2] (24 h) were greater than 90%, greater than 90% and 70 to 90%, respectively. Moreover, the DC50 at SMARCA4 (MV4-11 cells) is 10 to 100 nM; at SMARCA2 [1] it was 50 to 100 nM; on SMARCA2 [2] (MV4-11 cells, 24 h), 10 to 100 nM. Further, the “Selectivity in MV411” value on SMARCA2 [2] (MV4-11 cells) is “D (D (<10 fold))”.
`C#Cc1ccc(CNC(=O)[C@@H]2C[C@@H](O)CN2C(=O)[C@@H](NC(=O)[C@H]2CCC3(CC2)C[C@H](N2CCC(c4cnc(N5CCN6c7cc(-c8ccccc8O)nnc7NC[C@H]6C5)nc4)CC2)C3)C(C)(C)C)c(OC)c1` (single isomer, unassigned) [I-125]: at SMARCA4 (MV4-11 cells), the “SMARCA4 MSD MV411 degradation 24 h: average Dmax %” value is recorded as “C (C (50-70% degradation))” and the half-maximal degradation concentration (DC50) was greater than 100 nM. At SMARCA2 [1], the maximal degradation (Dmax) is greater than 90% and the DC50 was less than 10 nM. In addition, at SMARCA2 [2] (MV4-11 cells, 24 h), the “SMARCA2 MSD MV411 degradation 24 h: average Dmax %” value was “B (B (>70-90% degradation))” and the 50% degradation concentration (DC50) is 1 to 10 nM. For the same molecule, on SMARCA2 [2] (MV4-11 cells), the “Selectivity in MV411” value is on record as “C (C (10-100 fold))”.
For `Cc1ncsc1-c1ccc(CNC(=O)[C@@H]2C[C@@H](O)CN2C(=O)C(c2cc(OC[C@H]3CC[C@@H](N4CCC(c5cnc(N6CCc7[nH]c8nnc(-c9ccccc9O)cc8c7[C@H]6C)nc5)CC4)CC3)no2)C(C)C)cc1` (single isomer, unassigned) [I-2], the Dmax at SMARCA4 was greater than 90%; on SMARCA2 [1], 70 to 90%; on SMARCA2 [2] (24 h), greater than 90%. Moreover, the half-maximal degradation concentration (DC50) lay within 10 to 100 nM on SMARCA4 (MV4-11 cells); 10 to 50 nM on SMARCA2 [1]; 1 to 10 nM at SMARCA2 [2] (MV4-11 cells, 24 h). Further, the “Selectivity in MV411” value on SMARCA2 [2] (MV4-11 cells) was “D (D (<10 fold))”.
On to `Cc1ncsc1-c1ccc(CNC(=O)[C@@H]2C[C@@H](O)CN2C(=O)C(c2cc(OCCN3CCC(N4CCC(c5cnc(N6CCc7[nH]c8nnc(-c9ccccc9O)cc8c7[C@@H]6C)nc5)CC4)CC3)no2)C(C)C)cc1` (single isomer, unassigned) [I-41], for which the Dmax was greater than 90% on SMARCA4, 70 to 90% at SMARCA2 [1] and greater than 90% on SMARCA2 [2] (24 h). The DC50 at SMARCA4 (MV4-11 cells) is 10 to 100 nM; on SMARCA2 [1] it was 50 to 100 nM; at SMARCA2 [2] (MV4-11 cells, 24 h) it was less than 1 nM. The “Selectivity in MV411” value on SMARCA2 [2] (MV4-11 cells) was “D (D (<10 fold))”.
As to `C#Cc1ccc([C@H](CO)NC(=O)[C@@H]2C[C@@H](O)CN2C(=O)[C@@H](NC(=O)N2CC3(CC(N4CCC(c5cnc(N6CCc7[nH]c8nnc(-c9ccccc9O)cc8c7[C@H]6C)nc5)CC4)C3)C2)C(C)(C)C)cc1` [I-168], the greatest degradation seen (Dmax) on SMARCA4, at SMARCA2 [1] and on SMARCA2 [2] (24 h) was greater than 90% throughout. The DC50 was less than 1 nM on SMARCA4 (MV4-11 cells); less than 10 nM on SMARCA2 [1]; less than 1 nM on SMARCA2 [2] (MV4-11 cells, 24 h). Further, the “Selectivity in MV411” value on SMARCA2 [2] (MV4-11 cells) was “C (C (10-100 fold))”.
As for `Cc1ncsc1-c1ccc(CNC(=O)[C@@H]2C[C@@H](O)CN2C(=O)[C@@H](NC(=O)C2(F)CC2)C(C)(C)C)c(O[C@H]2CC[C@H](N3CCC(c4cnc(N5CCc6[nH]c7nnc(-c8ccccc8O)cc7c6[C@H]5C)nc4)CC3)CC2)c1` (single isomer, unassigned) [I-30], the Dmax at SMARCA4, at SMARCA2 [1] and on SMARCA2 [2] (24 h) was greater than 90% in each case. Also, the DC50 on SMARCA4 (MV4-11 cells) was less than 1 nM; at SMARCA2 [1], less than 10 nM; at SMARCA2 [2] (MV4-11 cells, 24 h), less than 1 nM. Further, the “Selectivity in MV411” value at SMARCA2 [2] (MV4-11 cells) is listed as “D (D (<10 fold))”.
